Where a name gives a salt, the structure may show the parent alone.
Columns and labels:
[1] = system: human prostate (adenocarcinoma) cell line (PC-3); assay: Growth inhibition of PC-3 cells, WST-8 assay; assay type: cell-based; conditions: 120 h, 5 days with test compound
Experimental: (§1) The growth inhibition on a bicalutamide resistant human prostate cancer cell line established from LNCaP.FGC (LNCaP-Bic) (Hobisch A, et al. Prostate. 2006; 66(4):413-20.) was determined by a WST-8 assay according to the method of Singh A K, et al. (Cancer Lett. 1996 Oct. 1; 107(1): 109-15.). In this method, LNCaP-Bic cells were seeded in RPMI 1640 medium containing 10% fetal bovine serum in a 96-well microplate and incubated at 37° C. for 24 hours in the presence of 5% carbon dioxide. Then, the test compound was added and the cells were incubated for another 5 days. After incubation, a 15-μL volume of WST-8 (2-(2-methoxy-4-nitrophenyl)-3-(4-nitrophenyl)-5-(2,4-[…])-2H-tetrazolium, monosodium salt) was added. After the incubation for the time, the color reaction was stopped by adding 15 μL of 1% SDS (sodium dodecyl sulfate) solution and the optical density was determined at the measurement wavelength of 450 nm and the reference wavelength of 630 nm, and the difference was calculated. The cell growth activity in each well was defined as the value determined by subtracting the OD in the control well not containing cells (the difference in absorbance between 450 nm and 630 nm) from that in the test well.
(§2) The 50% inhibitory concentration (IC50 (nM)) of the test compound was determined by comparing the cell growth activity in the well containing the test compound with that of the control not containing the test compound.
The growth inhibition on a human prostate (adenocarcinoma) cell line (PC-3) (van Bokhoven A, et al. Prostate. 2003; 57(3):205-25.) was also determined by the above method.

[2] = system: human breast cancer cell line (MDA-MB-468); assay: Growth inhibition of MDA-MB-468 cells, sulforhodamine B method; assay type: cell-based; conditions: 120 h, 5 days with test compound
Experimental: (§3) Growth inhibition of a human breast cancer cell line (MDA-MB-468) was determined by the sulforhodamine B method based on the method of Skehan P. et al. (J Natl Cancer Inst. 1990 Jul. 4; 82(13): 1107-12). In the study, MDA-MB-468 cells were seeded on DMEM medium containing 10% fetal bovine serum in a 96-well microplate. After 24-h incubation at 37° C. in the presence of 5% carbon dioxide, the test compound was added and the cells were incubated for another 5 days. After incubation, a trichloroacetic acid solution was added to yield the final concentration of 10% and the cells were left to stand at 4° C. for 1 hour to fix. Then, the cells were washed with water to remove the medium and trichloroacetic acid and dried in the air. The dried cells were stored at 4° C. until they were stained with sulforhodamine B. To each well, 1% acetic acid solution containing 0.4% sulforhodamine B was added and left to stand for 20 to 30 minutes at room temperature. After discarding the supernatant, each well was washed with 1% acetic acid solution, and 10 mM Tris([…]) solution was added while stirring to elute the dye taken into the cells. Then, the optical density was determined at the measurement wavelength of 492 nm and the reference wavelength of 690 nm, and the difference was calculated. The cell growth activity in each well was defined as the value determined by subtracting the OD in the control well not containing cells (the difference in absorbance between 492 nm and 690 nm) from that in the test well.
as §2

[3] = system: human prostate (carcinoma) cell line (LNCaP.FGC); assay: Growth inhibition of LNCaP.FGC cells, WST-8 assay; assay type: cell-based; conditions: 120 h, 5 days with test compound
Experimental: as §1, §2
The growth inhibition on a human prostate (carcinoma) cell line (LNCaP.FGC) (van Bokhoven A, et al. Prostate. 2003; 57(3):205-25.) was also determined by the above method.

[4] = system: human prostate (adenocarcinoma) cell line (VcaP); assay: Growth inhibition of VcaP cells, WST-8 assay; assay type: cell-based; conditions: 120 h, 5 days with test compound
Experimental: as §1, §2
The growth inhibition on a human prostate (adenocarcinoma) cell line (VcaP) (Korenchuk S, et al. In Vivo. 2001; 15(2):163-8.) was also determined by the above method.

[5] = system: human prostate (carcinoma) cell line (DU 145); assay: Growth inhibition of DU 145 cells, WST-8 assay; assay type: cell-based; conditions: 120 h, 5 days with test compound
Experimental: as §1, §2
The growth inhibition on a human prostate (carcinoma) cell line (DU 145) (van Bokhoven A, et al. Prostate. 2003; 57(3):205-25.) was also determined by the above method.

[6] = system: bicalutamide resistant human prostate cancer cell line established from LNCaP.FGC (LNCaP-Bic); assay: Growth inhibition of LNCaP-Bic cells, WST-8 assay; assay type: cell-based; conditions: 120 h, 5 days with test compound
Experimental: as §1, §2

[7] = system: human hepatic cancer cell line (HuH-7); assay: Growth inhibition of HuH-7 cells, sulforhodamine B method; assay type: cell-based; conditions: Homo sapiens, 120 h, 5 days with test compound
Experimental: as §3, §2
The growth inhibition on a human hepatic cancer cell line (HuH-7) was also determined by the above method.

IC50 [1] | melting point | IC50 [2] | IC50 [3] | IC50 [4] | IC50 [5] | IC50 [6] | IC50 [7] | SMILES
< 10 nM | 188 to 189.5 °C | < 10 nM | < 10 nM | < 10 nM | < 10 nM | < 10 nM | < 10 nM | Cc1cc(/C=C/C(=O)N2CCN(Cc3ccc(CCOc4ccc(C(C)C)cc4)cc3)CC2)cc(Cl)c1Oc1ccc(OCc2ccccc2F)cn1.Cl [Example 454, (E)-3-[3-Chloro-4-({5-[(2-fluorobenzyl)oxy]pyridin-2-yl}oxy)-5-methylphenyl]-1-[4-(4-{2-[4-(propan-2-yl)phenoxy]ethyl}benzyl)piperazin-1-yl]prop-2-en-1-one hydrochloride]
 | 166.4 to 167.7 °C |  |  |  |  |  | < 10 nM | Cc1cc(/C=C/C(=O)N2CCN(Cc3ccc(CCOc4ccc(C(C)C)cc4)cc3)CC2)cc(Cl)c1Oc1ccc(OCc2cccnc2)cn1.Cl [Example 445, (E)-3-(3-Chloro-5-methyl-4-{[5-(pyridin-3-ylmethoxy)pyridin-2-yl]oxy}phenyl)-1-[4-(4-{2-[4-(propan-2-yl)phenoxy]ethyl}benzyl)piperazin-1-yl]prop-2-en-1-one hydrochloride]
 | 211.9 to 214 °C |  |  |  |  |  | < 10 nM | Cc1cc(/C=C/C(=O)N2CCN(Cc3ccc(CCOc4ccc(F)cc4)cc3)CC2)cc(Cl)c1Oc1ccc(OCc2ccccc2Cl)cn1.Cl [Example 449, (E)-3-[3-Chloro-4-({5-[(2-chlorobenzyl)oxy]pyridin-2-yl}oxy)-5-methylphenyl]-1-(4-{4-[2-(4-fluorophenoxy)ethyl]benzyl}piperazin-1-yl)prop-2-en-1-one hydrochloride]
 | 214.8 to 215.3 °C |  |  |  |  |  | < 10 nM | Cc1cc(/C=C/C(=O)N2CCN(Cc3ccc(CCOc4ccc(C(C)C)cc4)cc3)CC2)cc(Cl)c1Oc1ccc(OCc2ccc(Cl)nc2)cn1.Cl [Example 443, (E)-3-[3-Chloro-4-({5-[(6-chloropyridin-3-yl)methoxy]pyridin-2-yl}oxy)-5-methylphenyl]-1-[4-(4-{2-[4-(propan-2-yl)phenoxy]ethyl}benzyl)piperazin-1-yl]prop-2-en-1-one hydrochloride]
< 10 nM |  | < 10 nM | < 10 nM | < 10 nM | < 10 nM | < 10 nM | < 10 nM | Cc1cc(/C=C/C(=O)N2CCN(Cc3ccc(CCOc4ccc(C(C)C)cc4)cc3)CC2)cc(Cl)c1Oc1ccc(OCc2ccccc2Cl)cn1 [Example 608, (E)-3-[3-Chloro-4-({5-[(2-chlorobenzyl)oxy]pyridin-2-yl}oxy)-5-methylphenyl]-1-[4-(4-{2-[4-(propan-2-yl)phenoxy]ethyl}benzyl)piperazin-1-yl]prop-2-en-1-one hydrochloride]
< 10 nM | 210.3 to 210.6 °C | < 10 nM | < 10 nM | < 10 nM | < 10 nM | < 10 nM | < 10 nM | Cc1ccccc1COc1ccc(Oc2c(C)cc(/C=C/C(=O)N3CCN(Cc4ccc(CCOc5ccc(F)cc5)cc4)CC3)cc2Cl)nc1.Cl [Example 448, (E)-3-[3-Chloro-5-methyl-4-({5-[(2-methylbenzyl)oxy]pyridin-2-yl}oxy)phenyl]-1-(4-{4-[2-(4-fluorophenoxy)ethyl]benzyl}piperazin-1-yl)prop-2-en-1-one hydrochloride]

Further lines, the compound ahead of its results:

SMILES | IC50 [1] | melting point | IC50 [2] | IC50 [3] | IC50 [4] | IC50 [5] | IC50 [6] | IC50 [7]
Cc1cc(/C=C/C(=O)N2CCN(Cc3ccc(CCOc4ccc(Cl)cc4)cc3)CC2)cc(C)c1Oc1ccc(OCc2ccc(C#N)cc2)cn1.Cl [Example 558, 4-{[(6-{4-[(E)-3-(4-{4-[2-(4-Chlorophenoxy)ethyl]benzyl}piperazin-1-yl)-3-oxoprop-1-en-1-yl]-2,6-dimethylphenoxy}pyridin-3-yl)oxy]methyl}benzonitrile hydrochloride] | < 10 nM | 219.7 to 220.7 °C |  | < 10 nM | < 10 nM | < 10 nM | < 10 nM | < 10 nM
Cc1ccc(OCCc2ccc(CN3CCN(C(=O)/C=C/c4cc(C)c(Oc5ccc(OCc6cncs6)cn5)c(C)c4)CC3)cc2)cc1.Cl [Example 596, (E)-3-(3,5-Dimethyl-4-{[5-(1,3-thiazol-5-ylmethoxy)pyridin-2-yl]oxy}phenyl)-1-(4-{4-[2-(4-methylphenoxy)ethyl]benzyl}piperazin-1-yl)prop-2-en-1-one hydrochloride] |  | 207 to 207.2 °C |  |  |  |  |  | < 10 nM
C/C(C(=O)N1CCN(Cc2ccc(CCOc3ccc(F)cc3)cc2)CC1)=C(/C)c1cc(C)c(Oc2ccc(OCc3ccc(C)cc3)cn2)c(Cl)c1.O=C(O)C(=O)O [Example 751, (E)-3-[3-Chloro-5-methyl-4-({5-[(4-methylbenzyl)oxy]pyridin-2-yl}oxy)phenyl]-1-(4-{4-[2-(4-fluorophenoxy)ethyl]benzyl}piperazin-1-yl)-2-methylbut-2-en-1-one ethanedioate] |  | 236.1 to 236.6 °C |  |  |  |  |  | < 10 nM
Cc1cc(/C=C/C(=O)N2CCN(Cc3ccc(CCOc4ccc(C(C)C)cc4)cc3)CC2)cc(C)c1Oc1ccc(OCc2cscn2)cn1 [Example 600, (E)-3-(3,5-Dimethyl-4-{[5-(1,3-thiazol-4-ylmethoxy)pyridin-2-yl]oxy}phenyl)-1-[4-(4-{2-[4-(propan-2-yl)phenoxy]ethyl}benzyl)piperazin-1-yl]prop-2-en-1-one hydrochloride] | < 10 nM |  |  | < 10 nM | < 10 nM | < 10 nM | < 10 nM | < 10 nM
Cc1cc(/C=C/C(=O)N2CCN(Cc3ccc(Oc4ccc(Cl)cc4)cc3)CC2)cc(C)c1Oc1ccc(OCc2ccc(C#N)cc2)cn1.Cl [Example 692, 4-{[(6-{4-[(E)-3-{4-[4-(4-Chlorophenoxy)benzyl]piperazin-1-yl}-3-oxoprop-1-en-1-yl]-2,6-dimethylphenoxy}pyridin-3-yl)oxy]methyl}benzonitrile hydrochloride] |  | 231.9 to 233.7 °C |  |  |  |  |  | < 10 nM

Reference: patent publication US8722663B2, “Di-substituted pyridine derivatives as anticancers” (Otsuka Pharmaceutical Co., Ltd., priority 2010, dated 2014)
